Laboratory results taken from paper PMC12810539, “EGFR-targeted gadolinium contrast agents for enhanced molecular magnetic resonance imaging of tumors” (The Journal of Biological Chemistry, 2025).

Test system: MDA-MB-231 and U138 MG cells
Assay: Laser scanning confocal fluorescence microscopy of cellular uptake
Type: cell-based, human
Conditions: for Cy5.5 fluorescence intensity in MDA-MB-231 cells versus U138MG cells: 0.3 μM Cy5.5 equivalent, 1 h, 37 °C, confocal microscopy; for effect of C225 preincubation on cellular fluorescence: C225 preincubation 12 h, then agent for 1 h, MDA-MB-231 and U138 MG cells
Procedure: To investigate the intracellular distribution of EBP-Gd-DO3A in cells with different levels of EGFR expression, MDA-MB-231 and U138 MG cells were seeded on glass coverslips in 24-well plates (5 × 10^4 cells per well). After 24 h, the cells were washed twice with serum-free medium, treated with 0.3 μM Cy5.5 or Cy5.5-EBP-Gd-DO3A (concentration of equivalent Cy5.5), and incubated at 37 °C for 1 h. Following incubation, cells were washed three times with PBS (pH 7.4) to remove unbound probes and were stained with 4′,6-diamidino-2-phenylindole (DAPI) (Sigma-Aldrich) for 10 min and examined with a laser scanning confocal fluorescence microscope (Leica, TCS SP8) with a 40 × objective lens. The fluorescence signals from Cy5.5 and its conjugates were visualized at λex = 680 nm and λem = 710 nm, while the fluorescence signals of DAPI (nucleus) were performed at λex = 350 nm and λem = 460 nm. The laser power, illumination intensity, and exposure time were kept identical across all samples to ensure quantitative comparability. To further characterize the selective cellular uptake of the conjugate via the EGFR-mediated pathway, the cells were preincubated with C225 for 12 h at 37 °C before probe treatment. Following the removal of the pretreatment solution, the cells were washed with serum-free medium, treated with Cy5.5 or Cy5.5-EBP-Gd-DO3A conjugate, and incubated at 37 °C as described above. The cells were stained with DAPI and visualized using the laser scanning confocal fluorescence microscope, and the fluorescent intensity of the cells was analyzed using Image J.

For “CMYIEALDKYAC [Cy5.5-EBP-Gd-DO3A, Cy5.5-labelled EBP-Gd-DO3A conjugate for fluorescence microscopy]”, the “Cy5.5 fluorescence intensity in MDA-MB-231 cells versus U138MG cells” value was “much stronger” and the “effect of C225 preincubation on cellular fluorescence” value was “inhibited”.

Cy5.5 [reference compound] was tested, and the “Cy5.5 fluorescence intensity in MDA-MB-231 cells versus U138MG cells” value was “the same” and the “effect of C225 preincubation on cellular fluorescence” value was “did not affect”.
